Results: patent US10597388B2, “Pyridazinone herbicides” (FMC CORPORATION, priority 2014, dated 2020)

What was measured:
Test in all cases: Test D controlled growth environment herbicide test, pre- and postemergence
Assay type in all cases: in vivo
[1] = system: bromegrass, downy (downy bromegrass, Bromus tectorum)
Outline: (§1)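 Pre-emergence: seeds sown in silt loam soil were sprayed with compound in a non-phytotoxic solvent mix containing surfactant. Post-emergence: plants at 2 to 18 cm (1- to 4-leaf stage) in peat moss/vermiculite medium got the same formulation. Visual 0–100 rating versus controls after 14 to 21 d.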

[2] = system: buckwheat, wild (wild buckwheat, Polygonum convolvulus)
Outline: as §1

[3] = system: kochia (Kochia scoparia)
Outline: as §1

[4] = system: oat, wild (wild oat, Avena fatua)
Outline: as §1

[5] = system: canarygrass (Phalaris minor)
Outline: as §1

[6] = system: pigweed (Amaranthus retroflexus)
Outline: as §1

[7] = system: windgrass (Apera spica-venti)
Outline: as §1

[8] = system: chickweed (common chickweed, Stellaria media)
Outline: as §1

[9] = system: Russian thistle (Salsola kali)
Outline: as §1

[10] = system: barley, winter (winter barley, Hordeum vulgare)
Outline: as §1

[11] = system: galium (catchweed bedstraw, Galium aparine)
Outline: as §1

[12] = system: field violet (Viola arvensis)
Outline: as §1

[13] = system: radish, wild (wild radish, Raphanus raphanistrum)
Outline: as §1

[14] = Postemergence, 31 g ai/ha, scale 0 to 100 (0 no effect, 100 complete control)
[15] = Postemergence, 125 g ai/ha, visual rating on scale 0 (no effect) to 100 (complete control), 14 to 21 d
[16] = Postemergence, 250 g ai/ha, scale 0 to 100 (0 no effect, 100 complete control)
[17] = Preemergence, 62 g ai/ha, scale 0 to 100 (0 no effect, 100 complete control)
[18] = Preemergence, 125 g ai/ha, scale 0 to 100 (0 no effect, 100 complete control)
[19] = Preemergence, 250 g ai/ha, scale 0 to 100 (0 no effect, 100 complete control)
[20] = postemergence, 62 g ai/ha, scale 0 to 100, 0 no effect, 100 complete control

Question: How did the “Bromegrass, Downy plant response rating” value [1, 14] turn out when CC(=O)Oc1c(C)nn(C)c(=O)c1-c1ccc(F)c2ccccc12 [Compound 90] was run?
Answer: 20

Question: And the “Plant response rating, Bromegrass, Downy” value [1, 15]?
Answer: 40

Question: What about the “Plant response rating, Bromegrass, Downy” value [1, 16] of the same molecule?
Answer: 55

Question: And the “Plant response rating (scale of 0 to 100), Bromegrass, Downy” value ([1]; Preemergence, 31 g ai/ha)?
Answer: 15

Question: What about the “Plant response rating, Bromegrass, Downy” value [1, 17] of the same molecule?
Answer: 20

Question: And the “Plant response rating, Bromegrass, Downy” value [1, 18]?
Answer: 55

Question: What about the “Plant response rating, Bromegrass, Downy” value [1, 19] of the same molecule?
Answer: 95

Question: What about the “Plant response rating, Bromegrass, Downy” value [1, 20] of the same molecule?
Answer: 30

Question: What about the “Buckwheat, Wild plant response rating” value [2, 14] of the same molecule?
Answer: 80

Question: And the “Plant response rating, Buckwheat, Wild” value [2, 15]?
Answer: 100

Question: And the “Plant response rating, Buckwheat, Wild” value [2, 16]?
Answer: 100

Question: What about the “Plant response rating (scale of 0 to 100), Buckwheat, Wild” value ([2]; Preemergence, 31 g ai/ha) of the same molecule?
Answer: 15

Question: What about the “Plant response rating, Buckwheat, Wild” value [2, 18] of the same molecule?
Answer: 40

Question: What about the “Plant response rating, Buckwheat, Wild” value [2, 19] of the same molecule?
Answer: 80

Question: What about the “Plant response rating, Buckwheat, Wild” value [2, 20] of the same molecule?
Answer: 90

Question: What about the “Kochia plant response rating” value [3, 14] of the same molecule?
Answer: 85

Question: What about the “Plant response rating, Kochia” value [3, 15] of the same molecule?
Answer: 100

Question: And the “Plant response rating, Kochia” value [3, 16]?
Answer: 100

Question: What about the “Plant response rating (scale of 0 to 100), Kochia” value ([3]; Preemergence, 31 g ai/ha) of the same molecule?
Answer: 75

Question: And the “Plant response rating (scale of 0 to 100), Kochia” value ([3]; Preemergence, 62 g ai/ha)?
Answer: 65

Question: What about the “Plant response rating, Kochia” value [3, 18] of the same molecule?
Answer: 90

Question: What about the “Plant response rating, Kochia” value [3, 19] of the same molecule?
Answer: 80

Question: And the “Plant response rating, Kochia” value [3, 20]?
Answer: 100

Question: What about the “Oat, Wild plant response rating” value [4, 14] of the same molecule?
Answer: 75

Question: And the “Plant response rating, Oat, Wild” value [4, 15]?
Answer: 98

Question: What about the “Plant response rating, Oat, Wild” value [4, 16] of the same molecule?
Answer: 100

Question: And the “Plant response rating (scale of 0 to 100), Oat, Wild” value ([4]; Preemergence, 31 g ai/ha)?
Answer: 75

Question: What about the “Plant response rating (scale of 0 to 100), Oat, Wild” value ([4]; Preemergence, 62 g ai/ha) of the same molecule?
Answer: 80

Question: What about the “Plant response rating, Oat, Wild” value [4, 18] of the same molecule?
Answer: 85

Question: What about the “Plant response rating, Oat, Wild” value [4, 19] of the same molecule?
Answer: 98

Question: What about the “Plant response rating, Oat, Wild” value [4, 20] of the same molecule?
Answer: 90

Question: And the “Canarygrass plant response rating” value [5, 14]?
Answer: 25

Question: And the “Plant response rating, Canarygrass” value [5, 15]?
Answer: 75

Question: What about the “Plant response rating, Canarygrass” value [5, 16] of the same molecule?
Answer: 75

Question: What about the “Plant response rating (scale of 0 to 100), Canarygrass” value ([5]; Preemergence, 31 g ai/ha) of the same molecule?
Answer: 50

Question: And the “Plant response rating (scale of 0 to 100), Canarygrass” value ([5]; Preemergence, 62 g ai/ha)?
Answer: 75

Question: And the “Plant response rating, Canarygrass” value [5, 18]?
Answer: 85

Question: And the “Plant response rating, Canarygrass” value [5, 19]?
Answer: 95

Question: And the “Plant response rating, Canarygrass” value [5, 20]?
Answer: 45

Question: And the “Pigweed plant response rating” value [6, 14]?
Answer: 80

Question: What about the “Plant response rating, Pigweed” value [6, 15] of the same molecule?
Answer: 95

Question: What about the “Plant response rating, Pigweed” value [6, 16] of the same molecule?
Answer: 100

Question: And the “Plant response rating (scale of 0 to 100), Pigweed” value ([6]; Preemergence, 31 g ai/ha)?
Answer: 25

Question: What about the “Plant response rating (scale of 0 to 100), Pigweed” value ([6]; Preemergence, 62 g ai/ha) of the same molecule?
Answer: 35

Question: What about the “Plant response rating, Pigweed” value [6, 18] of the same molecule?
Answer: 100

Question: What about the “Plant response rating, Pigweed” value [6, 19] of the same molecule?
Answer: 100

Question: And the “Plant response rating, Pigweed” value [6, 20]?
Answer: 90

Question: And the “Windgrass plant response rating” value [7, 14]?
Answer: 30

Question: What about the “Plant response rating, Windgrass” value [7, 15] of the same molecule?
Answer: 70

Question: And the “Plant response rating, Windgrass” value [7, 16]?
Answer: 90

Question: And the “Plant response rating (scale of 0 to 100), Windgrass” value ([7]; Preemergence, 31 g ai/ha)?
Answer: 50

Question: And the “Plant response rating (scale of 0 to 100), Windgrass” value ([7]; Preemergence, 62 g ai/ha)?
Answer: 65

Question: What about the “Plant response rating, Windgrass” value [7, 18] of the same molecule?
Answer: 80

Question: What about the “Plant response rating, Windgrass” value [7, 19] of the same molecule?
Answer: 98

Question: What about the “Plant response rating, Windgrass” value [7, 20] of the same molecule?
Answer: 50

Question: What about the “Chickweed plant response rating” value [8, 14] of the same molecule?
Answer: 80

Question: And the “Plant response rating, Chickweed” value [8, 15]?
Answer: 98

Question: And the “Plant response rating, Chickweed” value [8, 16]?
Answer: 100

Question: What about the “Plant response rating (scale of 0 to 100), Chickweed” value ([8]; Preemergence, 31 g ai/ha) of the same molecule?
Answer: 100

Question: What about the “Plant response rating, Chickweed” value [8, 18] of the same molecule?
Answer: 100

Question: And the “Plant response rating, Chickweed” value [8, 19]?
Answer: 100

Question: And the “Plant response rating, Chickweed” value [8, 20]?
Answer: 90

Question: What about the “Russian Thistle plant response rating” value [9, 14] of the same molecule?
Answer: 30

Question: What about the “Plant response rating, Russian Thistle” value [9, 15] of the same molecule?
Answer: 75

Question: What about the “Plant response rating, Russian Thistle” value [9, 16] of the same molecule?
Answer: 90

Question: What about the “Plant response rating (scale of 0 to 100), Russian Thistle” value ([9]; Preemergence, 31 g ai/ha) of the same molecule?
Answer: 10

Question: And the “Plant response rating (scale of 0 to 100), Russian Thistle” value ([9]; Preemergence, 62 g ai/ha)?
Answer: 15

Question: And the “Plant response rating, Russian Thistle” value [9, 18]?
Answer: 35

Question: And the “Plant response rating, Russian Thistle” value [9, 19]?
Answer: 60

Question: And the “Plant response rating, Russian Thistle” value [9, 20]?
Answer: 75

Question: What about the “Barley, Winter plant response rating” value [10, 14] of the same molecule?
Answer: 0

Question: What about the “Plant response rating, Barley, Winter” value [10, 15] of the same molecule?
Answer: 25

Question: And the “Plant response rating, Barley, Winter” value [10, 16]?
Answer: 35

Question: What about the “Plant response rating (scale of 0 to 100), Barley, Winter” value ([10]; Preemergence, 31 g ai/ha) of the same molecule?
Answer: 0

Question: What about the “Plant response rating, Barley, Winter” value [10, 17] of the same molecule?
Answer: 0

Question: And the “Plant response rating, Barley, Winter” value [10, 18]?
Answer: 15

Question: What about the “Plant response rating, Barley, Winter” value [10, 19] of the same molecule?
Answer: 30

Question: What about the “Plant response rating, Barley, Winter” value [10, 20] of the same molecule?
Answer: 15

Question: And the “Galium plant response rating” value [11, 14]?
Answer: 98

Question: What about the “Plant response rating, Galium” value [11, 15] of the same molecule?
Answer: 100

Question: And the “Plant response rating, Galium” value [11, 16]?
Answer: 100

Question: And the “Plant response rating (scale of 0 to 100), Galium” value ([11]; Preemergence, 31 g ai/ha)?
Answer: 75

Question: What about the “Plant response rating (scale of 0 to 100), Galium” value ([11]; Preemergence, 62 g ai/ha) of the same molecule?
Answer: 75

Question: And the “Plant response rating, Galium” value [11, 18]?
Answer: 85

Question: What about the “Plant response rating, Galium” value [11, 19] of the same molecule?
Answer: 95

Question: What about the “Plant response rating, Galium” value [11, 20] of the same molecule?
Answer: 100

Question: What about the “Field Violet plant response rating” value [12, 14] of the same molecule?
Answer: 90

Question: And the “Plant response rating, Field Violet” value [12, 15]?
Answer: 100

Question: And the “Plant response rating, Field Violet” value [12, 16]?
Answer: 100

Question: What about the “Plant response rating (scale of 0 to 100), Field Violet” value ([12]; Preemergence, 31 g ai/ha) of the same molecule?
Answer: 95

Question: What about the “Plant response rating (scale of 0 to 100), Field Violet” value ([12]; Preemergence, 62 g ai/ha) of the same molecule?
Answer: 95

Question: What about the “Plant response rating, Field Violet” value [12, 18] of the same molecule?
Answer: 100

Question: And the “Plant response rating, Field Violet” value [12, 19]?
Answer: 100

Question: What about the “Plant response rating, Field Violet” value [12, 20] of the same molecule?
Answer: 98

Question: What about the “Radish, Wild plant response rating” value [13, 14] of the same molecule?
Answer: 65

Question: And the “Plant response rating, Radish, Wild” value [13, 15]?
Answer: 75

Question: What about the “Plant response rating, Radish, Wild” value [13, 16] of the same molecule?
Answer: 95

Question: What about the “Plant response rating (scale of 0 to 100), Radish, Wild” value ([13]; Preemergence, 31 g ai/ha) of the same molecule?
Answer: 0

Question: What about the “Plant response rating (scale of 0 to 100), Radish, Wild” value ([13]; Preemergence, 62 g ai/ha) of the same molecule?
Answer: 65

Question: And the “Plant response rating, Radish, Wild” value [13, 18]?
Answer: 90

Question: What about the “Plant response rating, Radish, Wild” value [13, 19] of the same molecule?
Answer: 95

Question: What about the “Plant response rating, Radish, Wild” value [13, 20] of the same molecule?
Answer: 75
